In BindingDB's records for doi:10.1046/j.1471-4159.2002.00817.x (Uppsala University, 2002):

Experiments:
[1] = molecular target: T1, Neuropeptide Y receptor type 5 (Gallus gallus, UniProt Q8QFM2)
T1 sequence (Q8QFM2 whole entry): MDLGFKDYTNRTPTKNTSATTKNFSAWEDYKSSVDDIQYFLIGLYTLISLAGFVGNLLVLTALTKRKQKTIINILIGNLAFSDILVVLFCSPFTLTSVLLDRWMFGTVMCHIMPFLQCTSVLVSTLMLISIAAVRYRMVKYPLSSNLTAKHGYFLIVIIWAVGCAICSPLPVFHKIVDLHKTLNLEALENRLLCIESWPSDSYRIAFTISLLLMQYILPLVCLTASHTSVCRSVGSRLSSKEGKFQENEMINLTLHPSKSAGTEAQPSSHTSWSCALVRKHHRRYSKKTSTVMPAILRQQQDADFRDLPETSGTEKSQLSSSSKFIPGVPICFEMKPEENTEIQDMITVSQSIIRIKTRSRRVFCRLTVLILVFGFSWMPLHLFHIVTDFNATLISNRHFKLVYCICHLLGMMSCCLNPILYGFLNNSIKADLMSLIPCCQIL

[2] = molecular target: T2, Neuropeptide Y receptor type 1 (Gallus gallus, UniProt Q8QFM1)
T2 sequence (Q8QFM1 whole entry): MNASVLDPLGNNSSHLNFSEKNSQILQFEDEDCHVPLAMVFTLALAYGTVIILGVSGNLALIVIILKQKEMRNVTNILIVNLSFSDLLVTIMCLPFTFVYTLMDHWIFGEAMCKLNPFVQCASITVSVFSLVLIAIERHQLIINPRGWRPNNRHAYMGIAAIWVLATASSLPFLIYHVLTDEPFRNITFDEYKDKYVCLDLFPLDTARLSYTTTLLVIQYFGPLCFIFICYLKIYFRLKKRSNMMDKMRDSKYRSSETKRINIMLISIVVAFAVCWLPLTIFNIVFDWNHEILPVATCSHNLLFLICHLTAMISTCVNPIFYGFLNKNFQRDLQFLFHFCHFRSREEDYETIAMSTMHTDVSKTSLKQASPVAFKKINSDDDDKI

Molecule | Ki [1] | Ki [2]
N=C(N)NCCCC(NC(=O)C(c1ccccc1)c1ccccc1)C(=O)NCc1ccc(O)cc1 (stereo unspecified) [NSC_5311023] | > 10000 nM | 
O=c1oc2ccccc2c(O)c1C1CC(c2ccc(-c3ccccc3)cc2)Cc2ccccc21 (stereo unspecified) [NSC_41735] | 0.81 nM | > 10 µM
NC(N)=NCCCC(NC(=O)CC1(CC(=O)N2CCN(C3c4ccccc4NC(=O)c4ccccc43)CC2)CCCC1)C(=O)NCCn1c(=O)n(-c2ccccc2)n(-c2ccccc2)c1=O (stereo unspecified) [NSC_5311024] |  | > 10 µM

More lines, now with the values ahead:

Ki [1] | Ki [2] | Molecule
4.68 nM | > 10 µM | H-GPSQPTYPGDDAPVEDLIRFYNDLQQYLNVVTRHRY-NH2 [NSC_0]
 | > 10 µM | Nc1nc(NC[C@H]2CC[C@H](CNS(=O)(=O)c3cccc4ccccc34)CC2)nc2ccccc12 [CGP 71683]
> 10000 nM | > 10 µM | CN(C)CC1CCC(CN=C(N)c2ccc(CC(NC(=O)C(Cc3ccccc3)NS(=O)(=O)c3ccc4ccccc4c3)C(=O)N3CCCC3)cc2)CC1 (stereo unspecified) [CAS_5312150]
0.48 nM | > 10 µM | CC[C@H](C)[C@H](NC(=O)[C@H](Cc1ccc(O)cc1)NC(=O)[C@H](CCCNC(=N)N)NC(=O)[C@H](CCCNC(=N)N)NC(=O)[C@H](CC(C)C)NC(=O)[C@H](CC(=O)O)NC(=O)[C@H](C)NC(=O)[C@H](C)NC(=O)[C@H](Cc1ccc(O)cc1)NC(=O)[C@H](CCC(N)=O)NC(=O)[C@H](C)NC(=O)[C@H](CCSC)NC(=O)[C@H](CCC(N)=O)NC(=O)[C@H](CCC(=O)O)NC(=O)[C@@H]1CCCN1C(=O)[C@@H](NC(=O)[C@H](C)NC(=O)[C@H](CC(N)=O)NC(=O)[C@H](CC(=O)O)NC(=O)CNC(=O)[C@@H]1CCCN1C(=O)[C@H](Cc1ccc(O)cc1)NC(=O)[C@@H](NC(=O)[C@@H]1CCCN1C(=O)[C@H](CCC(=O)O)NC(=O)[C@H](CC(C)C)NC(=O)[C@@H]1CCCN1C(=O)[C@H](C)N)C(C)C)[C@@H](C)O)C(=O)N[C@@H](CC(N)=O)C(=O)N[C@@H](CCSC)C(=O)N[C@@H](CC(C)C)C(=O)N[C@H](C(=O)N[C@@H](CCCNC(=N)N)C(=O)N1CCC[C@H]1C(=O)N[C@@H](CCCNC(=N)N)C(=O)N[C@@H](Cc1ccc(O)cc1)C(N)=O)[C@@H](C)O [CAS_59763-91-6]
